According to patent US11174268B2, “Benzenesulfonamide compouds and their use as therapeutic agents” (Xenon Pharmaceuticals Inc., priority 2016, dated 2021):
Counter-ions that a name gives are not always drawn.

What was measured:
[1] = target: T1, NaV1.6 (Homo sapiens (Human), UniProt Q9UQD0); assay: Electrophysiological Assay (EP), patch voltage clamp, NaV1.6; type: cell-based; conditions: HEK-293 cells, whole-cell patch clamp;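 also: sodium current recorded at ambient temperature, channels held inactivated then briefly repolarized to −150 mV for 20 ms before a test pulse, control currents in 0.5% DMSO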
[2] = target: T2, NaV1.1 (Homo sapiens (Human), UniProt P35498); assay: Electrophysiological Assay (EP), patch voltage clamp, NaV1.1; type: cell-based; conditions: HEK-293 cells, whole-cell patch clamp;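 also: sodium current block measured at ambient temperature, holding at fully inactivating potential, 20 ms repolarization to −150 mV before test pulse, versus 0.5% DMSO control currents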
[3] = target: T2, NaV1.1; assay: Sodium Influx Assay (Flux), NaV1.1; type: cell-based; conditions: Trex HEK293 cells, ANG2 dye, inactivated state;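 also: channels co-expressed with human β1 subunit and held open by modulators, cells exposed to compounds for one hour at room temperature, IC50 from percent inhibition of influx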
[4] = target: NaV1.5 (Homo sapiens (Human), UniProt Q14524); assay: Sodium Influx Assay (Flux), NaV1.5; conditions: read-out: Flux NaV1.5 IC50; Trex HEK293 cells, ANG2 dye, inactivated state
[5] = target: T1, NaV1.6; assay: Sodium Influx Assay (Flux), NaV1.6; type: cell-based; conditions: Trex HEK293 cells, ANG2 dye, inactivated state;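 also: Tetracycline-induced cells, compounds applied for one hour at room temperature with modulators holding channels open, IC50 from percent inhibition of sodium influx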

T1 sequence (Q9UQD0 whole entry): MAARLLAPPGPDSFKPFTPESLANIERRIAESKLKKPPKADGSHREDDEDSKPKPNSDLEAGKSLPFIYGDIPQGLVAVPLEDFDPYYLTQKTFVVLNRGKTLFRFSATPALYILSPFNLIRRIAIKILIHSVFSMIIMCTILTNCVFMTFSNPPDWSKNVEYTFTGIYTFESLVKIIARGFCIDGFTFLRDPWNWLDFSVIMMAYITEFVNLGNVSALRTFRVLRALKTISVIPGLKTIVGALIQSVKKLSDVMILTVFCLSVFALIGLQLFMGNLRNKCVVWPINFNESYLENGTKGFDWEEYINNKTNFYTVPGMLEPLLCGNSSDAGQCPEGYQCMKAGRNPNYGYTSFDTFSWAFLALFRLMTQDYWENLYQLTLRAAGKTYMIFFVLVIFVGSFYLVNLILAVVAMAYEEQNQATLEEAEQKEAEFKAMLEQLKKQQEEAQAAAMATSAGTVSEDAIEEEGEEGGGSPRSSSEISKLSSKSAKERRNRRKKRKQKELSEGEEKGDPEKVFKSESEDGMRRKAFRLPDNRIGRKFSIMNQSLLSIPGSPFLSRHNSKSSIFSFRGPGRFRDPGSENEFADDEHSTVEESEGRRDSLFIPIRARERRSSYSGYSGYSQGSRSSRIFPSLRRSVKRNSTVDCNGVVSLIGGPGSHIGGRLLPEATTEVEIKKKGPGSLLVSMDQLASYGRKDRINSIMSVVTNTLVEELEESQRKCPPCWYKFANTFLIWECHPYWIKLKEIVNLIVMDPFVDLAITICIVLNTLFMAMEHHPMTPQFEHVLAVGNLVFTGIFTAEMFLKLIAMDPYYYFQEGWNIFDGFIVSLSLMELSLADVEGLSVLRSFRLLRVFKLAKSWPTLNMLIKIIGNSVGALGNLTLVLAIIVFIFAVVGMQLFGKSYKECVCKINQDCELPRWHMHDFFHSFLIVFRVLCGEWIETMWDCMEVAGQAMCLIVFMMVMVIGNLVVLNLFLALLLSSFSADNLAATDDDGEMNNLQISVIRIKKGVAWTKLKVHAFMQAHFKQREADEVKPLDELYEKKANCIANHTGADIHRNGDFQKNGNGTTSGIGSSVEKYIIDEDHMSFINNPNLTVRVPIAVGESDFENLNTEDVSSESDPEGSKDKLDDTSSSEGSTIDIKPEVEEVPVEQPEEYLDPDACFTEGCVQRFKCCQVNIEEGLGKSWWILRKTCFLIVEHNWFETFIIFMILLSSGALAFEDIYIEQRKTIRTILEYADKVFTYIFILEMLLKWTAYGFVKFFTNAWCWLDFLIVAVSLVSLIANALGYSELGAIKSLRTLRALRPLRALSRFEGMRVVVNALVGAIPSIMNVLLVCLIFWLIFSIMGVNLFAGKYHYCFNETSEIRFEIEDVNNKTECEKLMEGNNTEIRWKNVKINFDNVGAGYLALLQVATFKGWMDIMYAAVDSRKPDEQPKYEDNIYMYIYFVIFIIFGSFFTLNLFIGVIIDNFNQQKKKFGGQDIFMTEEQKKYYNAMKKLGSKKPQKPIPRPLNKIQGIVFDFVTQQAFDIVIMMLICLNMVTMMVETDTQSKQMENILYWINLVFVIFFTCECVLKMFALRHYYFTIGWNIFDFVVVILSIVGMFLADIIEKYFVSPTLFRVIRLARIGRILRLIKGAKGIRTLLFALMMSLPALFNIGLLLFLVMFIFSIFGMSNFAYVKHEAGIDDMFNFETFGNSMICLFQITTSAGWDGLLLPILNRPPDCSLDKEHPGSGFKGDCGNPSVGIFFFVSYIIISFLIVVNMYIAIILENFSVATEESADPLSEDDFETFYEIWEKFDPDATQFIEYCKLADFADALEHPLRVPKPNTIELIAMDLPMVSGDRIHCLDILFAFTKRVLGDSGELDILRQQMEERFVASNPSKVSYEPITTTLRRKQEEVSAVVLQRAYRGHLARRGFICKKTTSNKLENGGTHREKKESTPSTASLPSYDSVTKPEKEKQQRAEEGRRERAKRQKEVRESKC
Chain of NaV1.5 (Q14524 other isoform, or with tags, fused parts or gaps): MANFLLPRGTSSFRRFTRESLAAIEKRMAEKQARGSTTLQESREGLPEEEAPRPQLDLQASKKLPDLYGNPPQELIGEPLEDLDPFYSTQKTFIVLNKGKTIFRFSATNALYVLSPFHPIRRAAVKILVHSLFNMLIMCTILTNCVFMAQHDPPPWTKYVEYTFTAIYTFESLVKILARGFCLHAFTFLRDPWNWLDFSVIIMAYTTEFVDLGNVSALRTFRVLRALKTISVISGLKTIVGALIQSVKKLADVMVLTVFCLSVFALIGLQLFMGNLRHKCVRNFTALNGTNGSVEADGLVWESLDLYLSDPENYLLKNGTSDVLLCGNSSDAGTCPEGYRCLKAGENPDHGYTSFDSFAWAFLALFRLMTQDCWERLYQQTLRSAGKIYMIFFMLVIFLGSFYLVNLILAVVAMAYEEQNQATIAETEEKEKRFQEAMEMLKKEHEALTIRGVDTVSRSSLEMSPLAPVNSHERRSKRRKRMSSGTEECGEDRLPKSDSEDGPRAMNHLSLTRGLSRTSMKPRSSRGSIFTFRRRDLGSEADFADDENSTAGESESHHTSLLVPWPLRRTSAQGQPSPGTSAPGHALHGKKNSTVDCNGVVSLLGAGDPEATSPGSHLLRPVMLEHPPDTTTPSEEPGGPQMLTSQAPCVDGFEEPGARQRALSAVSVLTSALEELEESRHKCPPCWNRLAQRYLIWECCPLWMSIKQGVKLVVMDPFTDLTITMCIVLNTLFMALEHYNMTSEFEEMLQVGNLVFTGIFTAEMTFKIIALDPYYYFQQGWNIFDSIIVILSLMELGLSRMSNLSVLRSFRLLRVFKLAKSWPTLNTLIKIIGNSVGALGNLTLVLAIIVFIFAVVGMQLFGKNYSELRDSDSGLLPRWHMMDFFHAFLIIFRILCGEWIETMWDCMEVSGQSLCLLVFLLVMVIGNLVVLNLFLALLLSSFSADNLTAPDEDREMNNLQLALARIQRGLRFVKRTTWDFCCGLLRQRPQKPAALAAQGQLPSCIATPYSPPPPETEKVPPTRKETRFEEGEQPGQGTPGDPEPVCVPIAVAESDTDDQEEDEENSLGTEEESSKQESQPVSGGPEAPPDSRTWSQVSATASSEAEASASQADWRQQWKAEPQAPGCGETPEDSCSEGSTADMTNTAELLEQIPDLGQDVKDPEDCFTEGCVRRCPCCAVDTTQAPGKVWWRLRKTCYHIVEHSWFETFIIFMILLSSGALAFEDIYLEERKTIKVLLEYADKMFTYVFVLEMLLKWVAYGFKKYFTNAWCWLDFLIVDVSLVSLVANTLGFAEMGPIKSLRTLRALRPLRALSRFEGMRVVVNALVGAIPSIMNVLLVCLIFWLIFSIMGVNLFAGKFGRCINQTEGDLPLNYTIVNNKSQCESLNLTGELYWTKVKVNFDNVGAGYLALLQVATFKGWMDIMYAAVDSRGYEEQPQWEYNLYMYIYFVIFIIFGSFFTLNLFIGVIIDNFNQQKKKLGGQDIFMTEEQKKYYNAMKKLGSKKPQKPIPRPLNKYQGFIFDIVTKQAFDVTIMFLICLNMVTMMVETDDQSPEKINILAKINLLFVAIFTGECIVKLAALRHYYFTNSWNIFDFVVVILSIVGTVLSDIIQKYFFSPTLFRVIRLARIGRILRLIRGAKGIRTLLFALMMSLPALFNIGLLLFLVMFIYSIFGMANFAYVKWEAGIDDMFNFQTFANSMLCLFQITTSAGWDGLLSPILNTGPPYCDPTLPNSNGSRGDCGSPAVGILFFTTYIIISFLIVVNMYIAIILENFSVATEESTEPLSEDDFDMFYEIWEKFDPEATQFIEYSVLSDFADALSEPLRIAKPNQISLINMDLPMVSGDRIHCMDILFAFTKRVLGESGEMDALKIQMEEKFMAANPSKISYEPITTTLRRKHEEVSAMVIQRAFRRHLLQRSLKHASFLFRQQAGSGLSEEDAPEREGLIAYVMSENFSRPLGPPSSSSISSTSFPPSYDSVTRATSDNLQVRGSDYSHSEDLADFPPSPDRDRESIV

Row | Compound | IC50 [1] [nM] | IC50 [2] [nM] | IC50 [3] [nM] | IC50 [4] [nM] | IC50 [5] [nM]
1 | 3-chloro-4-(1-phenylethylamino)-N-(1,2,4-thiadiazol-5-yl)benzenesulfonamide [Example 142] | 106 | 10000 | 3230 | 21200 | 187
2 | 5-chloro-2-fluoro-4-((1-(2-fluorophenyl)ethyl)amino)-N-(thiazol-2-yl)benzenesulfonamide [Example 144] | 34 | 907 | 2540 | 9670 | 214
3 | O=S(=O)(Nc1nccs1)c1ccc(N[C@H](c2ccccc2)C(F)(F)F)c(Cl)c1 [Example 4, (R)-3-chloro-N-(thiazol-2-yl)-4-((2,2,2-trifluoro-1-phenylethyl)amino)benzenesulfonamide formate] | 41 | 5310 | 3400 | 7010 | 794
4 | C[C@H](Nc1cc(F)c(S(=O)(=O)Nc2nccs2)cc1Cl)c1cc(Cl)ccc1F [Example 8, (S)-5-chloro-4-((1-(5-chloro-2-fluorophenyl)ethyl)amino)-2-fluoro-N-(thiazol-2-yl)benzenesulfonamide] | 10 | 420 | 1630 | 5370 | 137
5 | CC[C@H](Nc1ccc(S(=O)(=O)Nc2nccs2)cc1)c1ccccc1 [Example 84, (S)-4-((1-phenylpropyl)amino)-N-(thiazol-2-yl)benzenesulfonamide] |  | 10000 | 2410 |  | 
6 | CCC(c1ccccc1)N(C)c1ccc(S(=O)(=O)Nc2nccs2)cc1Cl (stereo not drawn) [Example 90, 3-chloro-4-(methyl(1-phenylpropyl)amino)-N-(thiazol-2-yl)benzenesulfonamide] |  | 2010 | 4050 |  | 
7 | Cc1cc(-c2cccc(F)c2CNc2cc(F)c(S(=O)(=O)Nc3cscn3)c(F)c2)ccn1 [Example 317, 2,6-difluoro-4-((2-fluoro-6-(2-methylpyridin-4-yl)benzyl)amino)-N-(thiazol-4-yl)benzenesulfonamide formate] | 982 |  | 3910 | 30000 | 328
8 | O=S(=O)(Nc1cccc(F)n1)c1c(F)cc(NCc2c(F)cccc2CN2CCC2)cc1F [Example 322, 4-((2-(azetidin-1-ylmethyl)-6-fluorobenzyl)amino)-2,6-difluoro-N-(6-fluoropyridin-2-yl)benzenesulfonamide formate] | 47 |  | 7750 | 30000 | 114
9 | O=S(=O)(Nc1ncns1)c1c(F)cc(NCc2ccccc2CN2CCC2)c(Cl)c1F [Example 327, 4-((2-(azetidin-1-ylmethyl)benzyl)amino)-3-chloro-2,6-difluoro-N-(1,2,4-thiadiazol-5-yl)benzenesulfonamide formate] | 1 |  | 4440 | 30000 | 3
10 | O=S(=O)(Nc1ccccn1)c1c(F)cc(NCc2c(F)cccc2CN2CCC2)cc1F [Example 328, 4-((2-(azetidin-1-ylmethyl)-6-fluorobenzyl)amino)-2,6-difluoro-N-(pyridin-2-yl)benzenesulfonamide] | 1040 |  | 30000 | 30000 | 3820
11 | Cc1c(NCc2ccccc2CN2CCC2)cc(F)c(S(=O)(=O)Nc2ncns2)c1F [Example 330, 4-((2-(azetidin-1-ylmethyl)benzyl)amino)-2,6-difluoro-3-methyl-N-(1,2,4-thiadiazol-5-yl)benzenesulfonamide] | 1 |  | 2000 | 30000 | 1
12 | O=S(=O)(Nc1cscn1)c1cc(Cl)c(NCc2c(F)ccc3cn[nH]c23)cc1F [Example 334, 5-chloro-2-fluoro-4-(((6-fluoro-1H-indazol-7-yl)methyl)amino)-N-(thiazol-4-yl)benzenesulfonamide formate] | 2 |  | 4650 | 30000 | 29
